Source: article PMC10786919, “Design-rules for stapled peptides with in vivo activity and their application to Mdm2/X antagonists” (Nature Communications, 2024)
≈ marks a conversion by molar mass, not a printed value. Where two headings read alike, the source gives them in different places. Positions of bridges follow the written chain, without caps; N, C: chain ends. Non-standard residues stand in square brackets, D forms with d. Residues, ends and D or L forms follow the SMILES beside them. Trp(6-Cl) = N[C@@H](Cc1c[nH]c2cc(Cl)ccc12)C(=O)O; Lys(N3) = [N-]=[N+]=NCCCC[C@H](N)C(=O)O; hArg = N=C(N)NCCCC[C@H](N)C(=O)O; R8 = C=CCCCCCC[C@@](C)(N)C(=O)O; Cba = N[C@@H](CC1CCC1)C(=O)O; S5 = C=CCCC[C@](C)(N)C(=O)O; βAla = NCCC(=O)O; Sar = CNCC(=O)O

Tests used:
[1] = Experimental LogD (partition coefficient); conditions: for logD: not stated, Partition Coeff LogD
[2] = Solubility assay (kinetic solubility, PBS pH 7); format: physicochemical; conditions: pH 7, PBS; for solubility kinetic: pH 7, aqueous buffer, kinetic from dmso stock, read-out: Solubility
Procedure, shortened: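 Reference standards were made by diluting the 10 mM stock to 100 µM in acetonitrile:methanol:DMSO 10:80:10. Solubility in µM was calculated as the sample peak area divided by the standard peak area, multiplied by the standard concentration.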

in vitro = test: in vitro
Procedure, shortened: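 Azido-peptide permeability was read as loss of NanoBRET signal (donor 450 nm, acceptor 610 nm) after adding NanoBret618-azide at 10 μM final.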

[3] = Lactate dehydrogenase (LDH) release assay; format: cell-based
Procedure, shortened: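 HCT116 cells stably carrying a p53-responsive β-lactamase reporter, seeded at 8000 cells/well, exposed to compound with 0.5% final DMSO. LDH release read with the CytoTox-ONE membrane integrity kit. Values are geometric means of at least three biological replicates.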

[4] = Nanoclick permeability assay EC50
[5] = 0% FBS 4Hr, read-out: LDH: Cytotoxicity assay: EC50
[6] = 4 hours, 0% serum, read-out: LDH Cytotoxicity assay EC50

| Compound | EPSA (physchem) | logD [1] | solubility kinetic [2] | cell entry EC50 (in vitro; [4]) | EC50 ([3]; LDH: Cytotoxicity assay: EC50) | cell entry EC50 (in vitro) | EC50 [3, 5] | EC50 [3, 6] | Partition Coeff LogD [1] | Solubility [2] |
| --- | --- | --- | --- | --- | --- | --- | --- | --- | --- | --- |
| CC(=O)N[C@@H](CCCCN=[N+]=[N-])C(=O)NCCC(=O)N[C@H](CC(C)C)C(=O)N[C@H](C(=O)N[C@@H](Cc1ccccc1)C(=O)N[C@]1(C)CCCCCCC=CCCC[C@@](C)(C(=O)N[C@@H](CO)C(=O)N[C@H](C)C(=O)N[C@@H](C)C(N)=O)NC(=O)[C@H](CC2CCC2)NC(=O)[C@H](C)NC(=O)[C@H](C)NC(=O)[C@H](Cc2c[nH]c3cc(Cl)ccc23)NC(=O)[C@H](Cc2ccc(O)cc2)NC(=O)[C@H](C)NC1=O)[C@@H](C)O [MP-493] (Ac-[Lys(N3)][βAla][dL]TF[R8]AY[Trp(6-Cl)]AA[Cba][S5]S[dA]A-NH2; staple 6-13) | 187 A^2 | 3.93 | < 1 µM | 84.5 nM | > 50600 nM |  |  |  |  |  |
| CC(=O)N[C@@H](CCCCN=[N+]=[N-])C(=O)NCCC(=O)N[C@@H](CC(C)C)C(=O)N[C@H](C(=O)N[C@@H](C)C(=O)N[C@]1(C)CCCCCCC=CCCC[C@@](C)(C(=O)N[C@@H](CO)C(=O)N[C@@H](C)C(=O)N[C@@H](C)C(N)=O)NC(=O)[C@H](CC2CCC2)NC(=O)[C@H](CCC(N)=O)NC(=O)[C@H](C)NC(=O)[C@H](Cc2c[nH]c3ccccc23)NC(=O)[C@H](Cc2ccc(O)cc2)NC(=O)[C@H](CCC(=O)O)NC1=O)[C@@H](C)O [MP-892, AZIDE-ATSP-7041 (F3A)] | 201 A^2 | 2.54 | 101 µM (≈ 191 µg/mL) |  |  | 465 nM | > 50600 nM | > 50000 nM |  |  |
| CC(=O)N[C@@H](CCCCN=[N+]=[N-])C(=O)NCCC(=O)N[C@@H](CC(C)C)C(=O)N[C@H](C(=O)N[C@@H](Cc1ccccc1)C(=O)N[C@]1(C)CCCCCCC=CCCC[C@@](C)(C(=O)N[C@@H](CO)C(=O)N[C@@H](C)C(=O)N[C@@H](C)C(N)=O)NC(=O)[C@H](CC2CCC2)NC(=O)[C@H](CCC(N)=O)NC(=O)[C@H](C)NC(=O)[C@H](Cc2c[nH]c3ccccc23)NC(=O)[C@H](CCC(=O)O)NC(=O)[C@H](C)NC1=O)[C@@H](C)O [MP-029] (Ac-[Lys(N3)][βAla]LTF[R8]AEWAQ[Cba][S5]SAA-NH2; staple 6-13) | 182 A^2 |  |  | 70 nM | > 50700 nM |  |  |  | Poorly Behaved | Poorly Behaved |
| CC(=O)N[C@@H](CCCCN=[N+]=[N-])C(=O)NCCC(=O)N(C)CC(=O)N[C@H](C(=O)N[C@@H](Cc1ccccc1)C(=O)N[C@]1(C)CCCCCCC=CCCC[C@@](C)(C(=O)N[C@@H](CO)C(=O)N[C@@H](C)C(=O)N[C@@H](C)C(N)=O)NC(=O)[C@H](CC2CCC2)NC(=O)[C@H](CCC(N)=O)NC(=O)[C@H](C)NC(=O)[C@H](Cc2c[nH]c3ccccc23)NC(=O)[C@H](Cc2ccc(O)cc2)NC(=O)[C@H](CCC(=O)O)NC1=O)[C@@H](C)O [MP-799] (Ac-[Lys(N3)][βAla][Sar]TF[R8]EYWAQ[Cba][S5]SAA-NH2; staple 6-13) | 219 A^2 | 2.6 | 82.5 µM (≈ 159 µg/mL) | > 10000 nM | > 50600 nM |  |  |  |  |  |
| CC(=O)N(C)CC(=O)N[C@@H](CCCCN=[N+]=[N-])C(=O)NCCC(=O)N[C@@H](C)C(=O)N[C@H](C(=O)N[C@@H](Cc1ccccc1)C(=O)N[C@]1(C)CCCCCCC=CCCC[C@@](C)(C(=O)N[C@@H](C)C(=O)N[C@@H](C)C(=O)N[C@@H](C)C(N)=O)NC(=O)[C@H](CC2CCC2)NC(=O)[C@H](C)NC(=O)[C@H](C)NC(=O)[C@H](Cc2c[nH]c3ccccc23)NC(=O)[C@H](Cc2ccc(O)cc2)NC(=O)[C@H](C)NC1=O)[C@@H](C)O [MP-895] (Ac-[Sar][Lys(N3)][βAla]ATF[R8]AYWAA[Cba][S5]AAA-NH2; staple 7-14) | 184 A^2 | 3.46 | 2 µM (≈ 3.74 µg/mL) | 197 nM | > 50600 nM |  |  |  |  |  |
| CC(=O)N[C@@H](CCCCN=[N+]=[N-])C(=O)NCCC(=O)N[C@@H](CC(C)C)C(=O)N[C@H](C(=O)N[C@@H](Cc1ccccc1)C(=O)N[C@]1(C)CCCCCCC=CCCC[C@@](C)(C(=O)N[C@@H](CO)C(=O)N[C@@H](C)C(=O)N[C@@H](C)C(N)=O)NC(=O)[C@H](CC2CCC2)NC(=O)[C@H](CCC(N)=O)NC(=O)[C@H](C)NC(=O)[C@H](C)NC(=O)[C@H](Cc2ccc(O)cc2)NC(=O)[C@H](CCC(=O)O)NC1=O)[C@@H](C)O [MP-893, AZIDE-ATSP-7041(W7A)] | 192 A^2 | 2.88 | 51 µM (≈ 94.6 µg/mL) |  |  | 1230 nM | 15000 nM | 15000 nM |  |  |
| CC(=O)N[C@@H](CCCCN=[N+]=[N-])C(=O)NCCC(=O)N[C@@H](CC(C)C)C(=O)N[C@H](C(=O)N[C@@H](Cc1ccccc1)C(=O)N[C@]1(C)CCCCCCC=CCCC[C@@](C)(C(=O)N[C@@H](CO)C(=O)N[C@@H](C)C(=O)N[C@@H](C)C(N)=O)NC(=O)[C@H](CC2CCC2)NC(=O)[C@@H]2CCCN2C(=O)[C@H](C)NC(=O)[C@H](Cc2c[nH]c3ccccc23)NC(=O)[C@H](Cc2ccc(O)cc2)NC(=O)[C@H](CCC(=O)O)NC1=O)[C@@H](C)O [MP-260] (Ac-[Lys(N3)][βAla]LTF[R8]EYWAP[Cba][S5]SAA-NH2; staple 6-13) | 197 A^2 |  |  | 246 nM | > 50600 nM |  |  |  | Poorly Behaved | Poorly Behaved |
| CC(=O)N[C@@H](CCCCN=[N+]=[N-])C(=O)NCCC(=O)N[C@@H](CC(C)C)C(=O)N[C@H](C(=O)N[C@@H](Cc1ccccc1)C(=O)N[C@]1(C)CCCCCCC=CCCC[C@@](C)(C(=O)N[C@@H](CO)C(=O)N[C@@H](C)C(=O)N[C@@H](C)C(N)=O)NC(=O)[C@H](CC2CCC2)NC(=O)CNC(=O)[C@H](C)NC(=O)[C@H](Cc2c[nH]c3ccccc23)NC(=O)[C@H](Cc2ccc(O)cc2)NC(=O)[C@H](CCC(=O)O)NC1=O)[C@@H](C)O [MP-262] (Ac-[Lys(N3)][βAla]LTF[R8]EYWAG[Cba][S5]SAA-NH2; staple 6-13) | 207 A^2 | 2.85 | 87 µM (≈ 165 µg/mL) | 106 nM | > 50600 nM |  |  |  |  |  |
| CC(=O)N[C@@H](CCCCN=[N+]=[N-])C(=O)NCCC(=O)N[C@@H](CC(C)C)C(=O)N[C@H](C(=O)N[C@@H](Cc1ccccc1)C(=O)N[C@]1(C)CCCCCCC=CCCC[C@@](C)(C(=O)N[C@@H](CO)C(=O)N[C@@H](C)C(=O)N[C@@H](C)C(N)=O)NC(=O)[C@H](CC2CCC2)NC(=O)[C@H](CCC(N)=O)NC(=O)[C@H](C)NC(=O)[C@H](Cc2c[nH]c3ccccc23)NC(=O)[C@H](Cc2ccc(O)cc2)NC(=O)[C@@H](C)NC1=O)[C@@H](C)O [MP-473] (Ac-[Lys(N3)][βAla]LTF[R8][dA]YWAQ[Cba][S5]SAA-NH2; staple 6-13) | 213 A^2 | 3.49 |  | 197 nM | > 50000 nM |  |  |  |  | Poorly Behaved |
| CC(=O)N[C@@H](CCCCN=[N+]=[N-])C(=O)NCCC(=O)N[C@@H](CC(C)C)C(=O)N[C@@H](CCCCNC(=N)N)C(=O)N[C@@H](Cc1ccccc1)C(=O)N[C@]1(C)CCCCCCC=CCCC[C@@](C)(C(=O)N[C@@H](CO)C(=O)N[C@@H](C)C(=O)N[C@@H](C)C(N)=O)NC(=O)[C@H](CC2CCC2)NC(=O)[C@H](CCC(N)=O)NC(=O)[C@H](C)NC(=O)[C@H](Cc2c[nH]c3ccccc23)NC(=O)[C@H](Cc2ccc(O)cc2)NC(=O)[C@H](CCC(=O)O)NC1=O [MP-6897] (Ac-[Lys(N3)][βAla]L[hArg]F[R8]EYWAQ[Cba][S5]SAA-NH2; staple 6-13) | 210 A^2 | 2.94 | 9 µM (≈ 18.4 µg/mL) | 1510 nM | > 50600 nM |  |  |  |  |  |
